Results on 22 compounds are retold here after patent publication US9321757B2, “Heterocyclic compound” (Takeda Pharmaceutical Company Limited, priority 2013, dated 2016).

One experiment has as its target T1, IRAK-4 (Homo sapiens, UniProt Q9NWZ3).
T1 construct: purchased Carna Biosciences, Inc
T1 sequence (Q9NWZ3 1-460): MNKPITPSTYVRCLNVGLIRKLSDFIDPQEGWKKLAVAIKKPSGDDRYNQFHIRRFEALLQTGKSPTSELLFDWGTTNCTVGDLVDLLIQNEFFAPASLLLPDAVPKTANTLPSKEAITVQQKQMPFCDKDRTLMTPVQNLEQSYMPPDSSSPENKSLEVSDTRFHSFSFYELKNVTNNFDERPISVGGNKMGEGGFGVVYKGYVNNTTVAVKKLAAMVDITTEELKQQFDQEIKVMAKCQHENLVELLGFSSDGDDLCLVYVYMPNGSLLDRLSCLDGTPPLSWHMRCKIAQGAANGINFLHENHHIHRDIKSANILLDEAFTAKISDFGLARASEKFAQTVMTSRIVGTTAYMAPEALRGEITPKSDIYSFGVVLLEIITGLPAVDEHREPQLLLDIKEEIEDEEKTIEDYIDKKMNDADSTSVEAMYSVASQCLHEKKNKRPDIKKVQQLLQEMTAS
Nature of the experiment: IRAK-4 Enzyme Inhibition Test (LANCE method). The conditions noted are these: compound concentration 1 μM; well without enzyme = 100% inhibition. In kind it is biochemical. As to the method:
IRAK-4 enzyme inhibitory activities of test compounds were measured by LANCE method (PerkinElmer). First, a test compound diluted with assay buffer (50 mM HEPES (pH7.5), 10 mM MgCl2, 1 mM EGTA, 2 mM DTT, 0.01% Tween 20, 0.01% BSA) was added to 384-well plate at 2 μL each. Then, IRAK-4 (Carna Biosciences, Inc.) and a fluorescence-labeled peptide substrate (ULight-ACC peptide, PerkinElmer) solution diluted with assay buffer at 240 ng/mL and 37.5 nM, respectively were added at 2 μL each. Then, enzyme reaction was started by adding 2 μL each of ATP solution prepared with assay buffer at 1.5 mM. After the reaction at room temperature for 1 hr, Detection Buffer (PerkinElmer) prepared to be 20 mM EDTA, 1 nM europium-labeled anti-phospho ACC antibody (PerkinElmer) was added at 6 μL each. After standing at room temperature for 1 hr, fluorescence intensity (excitation wavelength 340 nm, fluorescence wavelength 665 nm, delay time 100 microseconds) was measured by a plate reader, Envision (PerkinElmer). The inhibitory activity of each compound was calculated as relative value where fluorescence intensity of a well without enzyme is considered as 100% inhibition.
(In TR-FRET formats the signal depends on donor and acceptor labels being close together.)
`CN(C)CC1CN(c2nn(C)cc2NC(=O)c2coc(-c3ccnc(NCC(F)(F)F)c3)n2)C(=O)C1(C)C` (stereo not shown) [Example 62, N-(3-(4-((dimethylamino)methyl)-3,3-dimethyl-2-oxopyrrolidin-1-yl)-1-methyl-1H-pyrazol-4-yl)-2-(2-((2,2,2-trifluoroethyl)amino)pyridin-4-yl)-1,3-oxazole-4-carboxamide]: the “IRAK4 enzyme inhibitory rate (%) at 1 μM” value is listed as 100%.

Still in this experiment, the particulars now being: compound concentration 1 μM; well without enzyme = 100% inhibition; read-out: IRAK4 enzyme inhibitory rate (%) at 1 μM.
Take `C[C@H]1CCN(c2nn(C)cc2NC(=O)c2coc(-c3ccnc(NCC(F)(F)F)c3)n2)C1=O` [Example 77, N-(1-methyl-3-((3S)-3-methyl-2-oxopyrrolidin-1-yl)-1H-pyrazol-4-yl)-2-(2-((2,2,2-trifluoroethyl)amino)pyridin-4-yl)-1,3-oxazole-4-carboxamide]: the inhibition at 1 µM came to 99%. The same measure, in the same setting: for `Cn1cc(NC(=O)c2coc(-c3ccnc(NCC(F)(F)F)c3)n2)c(N2CCC(C)(C)C2=O)n1` [Example 13, N-(3-(3,3-dimethyl-2-oxopyrrolidin-1-yl)-1-methyl-1H-pyrazol-4-yl)-2-(2-((2,2,2-trifluoroethyl)amino)pyridin-4-yl)-1,3-oxazole-4-carboxamide] the value was 98%; for `Cc1cccc(C(=O)Nc2cn(C)nc2N2CCC(C)(C)C2=O)c1` [Example 46, N-(3-(3,3-dimethyl-2-oxopyrrolidin-1-yl)-1-methyl-1H-pyrazol-4-yl)-3-methylbenzamide], 30%; for `Cn1cc(NC(=O)c2cccc(N3CC4(CCNC4)NC3=O)n2)c(N2CCC(C)(C)C2=O)n1` (stereo not shown) [Example 206, N-(3-(3,3-dimethyl-2-oxopyrrolidin-1-yl)-1-methyl-1H-pyrazol-4-yl)-6-(2-oxo-1,3,7-triazaspiro[4.4]non-3-yl)pyridine-2-carboxamide], 100%. The same measure, in the same setting: for `CC1CCN(c2nn(C)cc2NC(=O)c2coc(-c3ccnc(NCC(F)(F)F)c3)n2)C1=O` (stereo not shown) [Example 2, N-(1-methyl-3-(3-methyl-2-oxopyrrolidin-1-yl)-1H-pyrazol-4-yl)-2-(2-((2,2,2-trifluoroethyl)amino)pyridin-4-yl)-1,3-oxazole-4-carboxamide] the value was 98%; for `Cn1cc(NC(=O)c2coc(-c3ccnc(NCC(F)F)c3)n2)c(N2CCN(CCO)C2=O)n1` [Example 60, 2-(2-((2,2-difluoroethyl)amino)pyridin-4-yl)-N-(3-(3-(2-hydroxyethyl)-2-oxoimidazolidin-1-yl)-1-methyl-1H-pyrazol-4-yl)-1,3-oxazole-4-carboxamide], 99%; for `CN(C)CC1CN(c2nn(C)cc2NC(=O)c2coc(-c3ccnc(NCC(F)(F)F)c3)n2)C(=O)C1(C)C` (stereo not shown) [Example 61, N-(3-(4-((dimethylamino)methyl)-3,3-dimethyl-2-oxopyrrolidin-1-yl)-1-methyl-1H-pyrazol-4-yl)-2-(2-((2,2,2-trifluoroethyl)amino)pyridin-4-yl)-1,3-oxazole-4-carboxamide], 100%. `CN(C)[C@H]1CC(=O)N(c2nn(C)cc2NC(=O)c2coc(-c3ccnc(NCC(F)(F)F)c3)n2)C1` [Example 16, N-(3-((4S)-4-(dimethylamino)-2-oxopyrrolidin-1-yl)-1-methyl-1H-pyrazol-4-yl)-2-(2-((2,2,2-trifluoroethyl)amino)pyridin-4-yl)-1,3-oxazole-4-carboxamide]: the inhibition at 1 µM stood at 98%. For `CN(C)CC1CC(=O)N(c2nn(C)cc2NC(=O)c2coc(-c3ccnc(NCC(F)(F)F)c3)n2)C1` (stereo not shown) [Example 3, N-(3-(4-((dimethylamino)methyl)-2-oxopyrrolidin-1-yl)-1-methyl-1H-pyrazol-4-yl)-2-(2-((2,2,2-trifluoroethyl)amino)pyridin-4-yl)-1,3-oxazole-4-carboxamide], the inhibition at 1 µM turned out to be 100%.

In the case of `C[C@H]1C(O)C(C)(C)C(=O)N1c1nn(C)cc1NC(=O)c1coc(-c2ccnc(NCC(F)(F)F)c2)n1` (stereo partly drawn) [Example 17, N-(3-((5S)-4-hydroxy-3,3,5-trimethyl-2-oxopyrrolidin-1-yl)-1-methyl-1H-pyrazol-4-yl)-2-(2-((2,2,2-trifluoroethyl)amino)pyridin-4-yl)-1,3-oxazole-4-carboxamide], the inhibition at 1 µM was found to be 77%. Same read-out and setting: with `CNCC1CN(c2nn(C)cc2NC(=O)c2coc(-c3ccnc(NCC(F)(F)F)c3)n2)C(=O)N1C` (stereo not shown) [Example 110, N-(1-methyl-3-(3-methyl-4-((methylamino)methyl)-2-oxoimidazolidin-1-yl)-1H-pyrazol-4-yl)-2-(2-((2,2,2-trifluoroethyl)amino)pyridin-4-yl)-1,3-oxazole-4-carboxamide] the figure was 98%; with `Cn1cc(NC(=O)c2coc(-c3ccnc(NCC(F)(F)F)c3)n2)c(N2C[C@@H](O)CC2=O)n1` [Example 1, N-(3-((4S)-4-hydroxy-2-oxopyrrolidin-1-yl)-1-methyl-1H-pyrazol-4-yl)-2-(2-((2,2,2-trifluoroethyl)amino)pyridin-4-yl)-1,3-oxazole-4-carboxamide], 98%. Take `CN1CCN(c2nn(C)cc2NC(=O)c2coc(-c3ccnc(NCC(F)(F)F)c3)n2)C1=O` [Example 48, N-(1-methyl-3-(3-methyl-2-oxoimidazolidin-1-yl)-1H-pyrazol-4-yl)-2-(2-((2,2,2-trifluoroethyl)amino)pyridin-4-yl)-1,3-oxazole-4-carboxamide]: the inhibition at 1 µM came out at 99%. For the compound `CN1CCN(c2nn(C)cc2NC(=O)c2cccc(N3CC4(CCNC4)NC3=O)n2)C1=O` (stereo not shown) [Example 215, N-(1-methyl-3-(3-methyl-2-oxoimidazolidin-1-yl)-1H-pyrazol-4-yl)-6-(2-oxo-1,3,7-triazaspiro[4.4]non-3-yl)pyridine-2-carboxamide], the inhibition at 1 µM was 100%. Same read-out and setting: for `Cn1cc(NC(=O)c2coc(-c3ccnc(NCC4CC4)c3)n2)c(N2CCN(CCO)C2=O)n1` [Example 59, 2-(2-((cyclopropylmethyl)amino)pyridin-4-yl)-N-(3-(3-(2-hydroxyethyl)-2-oxoimidazolidin-1-yl)-1-methyl-1H-pyrazol-4-yl)-1,3-oxazole-4-carboxamide] the value was 100%. Turning to `Cc1cccc(C(=O)Nc2cn(C)nc2N2CCC(C)(C)C2=O)n1` [Example 36, N-(3-(3,3-dimethyl-2-oxopyrrolidin-1-yl)-1-methyl-1H-pyrazol-4-yl)-6-methylpyridine-2-carboxamide], the inhibition at 1 µM was found to be 36%. For `CC(O)CN1CCN(c2nn(C)cc2NC(=O)c2coc(-c3ccnc(NCC(F)(F)F)c3)n2)C1=O` (stereo not shown) [Example 164, N-(3-(3-(2-hydroxypropyl)-2-oxoimidazolidin-1-yl)-1-methyl-1H-pyrazol-4-yl)-2-(2-((2,2,2-trifluoroethyl)amino)pyridin-4-yl)-1,3-oxazole-4-carboxamide], the inhibition at 1 µM is 98%.

In the case of `Cn1cc(NC(=O)c2ccn(C(F)F)n2)c(N2CCC(C)(C)C2=O)n1` [Example 40, 1-(difluoromethyl)-N-(3-(3,3-dimethyl-2-oxopyrrolidin-1-yl)-1-methyl-1H-pyrazol-4-yl)-1H-pyrazole-3-carboxamide], the inhibition at 1 µM is 56%. For the compound `Cn1cc(NC(=O)c2coc(-c3ccnc(NCC(F)(F)F)c3)n2)c(N2CCOC2=O)n1` [Example 55, N-(1-methyl-3-(2-oxo-1,3-oxazolidin-3-yl)-1H-pyrazol-4-yl)-2-(2-((2,2,2-trifluoroethyl)amino)pyridin-4-yl)-1,3-oxazole-4-carboxamide], the inhibition at 1 µM was 99%. For `Cn1cc(NC(=O)c2cccc(N3C[C@@H](CN)NC3=O)n2)c(N2CCC(C)(C)C2=O)n1` [Example 199, 6-((4R)-4-(aminomethyl)-2-oxoimidazolidin-1-yl)-N-(3-(3,3-dimethyl-2-oxopyrrolidin-1-yl)-1-methyl-1H-pyrazol-4-yl)pyridine-2-carboxamide], the inhibition at 1 µM turned out to be 99%. For `Cn1cc(NC(=O)c2coc(-c3ccnc(NCC(F)(F)F)c3)n2)c(N2CC(CO)C(C)(C)C2=O)n1` (stereo not shown) [Example 101, N-(3-(4-(hydroxymethyl)-3,3-dimethyl-2-oxopyrrolidin-1-yl)-1-methyl-1H-pyrazol-4-yl)-2-(2-((2,2,2-2-trifluoroethyl)amino)pyridin-4-yl)-1,3-oxazole-4-carboxamide], the inhibition at 1 µM amounted to 99%.
